Source: US20230365577A1, “Photodynamic Therapy and Diagnosis” (RMW CHO Group Limited, priority 2020, published 2023)
Where a name gives a salt, the structure may show the parent alone. Read-outs that look alike come from different tables or passages of the source.

Tests used:
[1] = test system: 4T1 murine breast cancer cells; experiment: Tumour localisation and retention, model 1 (subcutaneous 4T1 tumours); format: in vivo, Balb/C wild type mice; details: 0.1 mg/kg IT, primary breast tumours, IVIS fluorescence
Description: Model 1 used Balb/C wild type mice implanted subcutaneously with 10^4×4T1 murine breast cancer cells. When tumours reached a palpable size (˜3-6 mm diameter) mice received compound 6 by either oral gavage (ORAL: 2.5 mg/kg), intravenous injection (IV: 1.0 mg/kg), or intratumoral injection (IT: 1.0 mg/kg in […]). To establish compound 6 localisation, mice were imaged using an IVIS Lumina III In Vivo Imaging System (Perkin Elmer) to detect fluorescence at 660 nm when illuminated under blue (400-460 nm) light.
In a second experiment, the localisation of compound 6 at 24 hours post-administration was compared to that of Talaporfin sodium and 5-Aminolevulinic acid (5-ALA), with all compounds injected at 0.1 mg/kg IT. Fluorescence measurements were made using an IVIS Lumina III instrument (as above).

[2] = Singlet oxygen (1O2) production rate; format: physicochemical
Source text: The production of singlet oxygen (^1O2), cellular phototoxicity and light-independent cytotoxicity (“dark toxicity”) of a number of phyllochlorin analogues were compared against chlorin e4 disodium and Talaporfin sodium (mono-L-aspartyl chlorin e6), the active ingredient of Laserphyrin™.

[3] = test system: SKOV3 ovarian cancer cells; experiment: Phototoxicity in SKOV3 cells (652 nm laser, AlamarBlue viability); format: cell-based, Human; details: SKOV3
Description: (§1) Human ovarian cancer cell line SKOV3 (ATCC #HTB-77) was maintained in Dulbecco's Modified Eagle Medium/Nutrient Mixture F-12 (DMEM/F-12), supplemented with 10% v/v Fetal Bovine Serum, 100 U/mL penicillin and 100 µg/mL streptomycin. Monolayer cultures were grown in a humidified incubator at 37° C. with 5% CO2.
(§2) For in vitro experiments, photosensitizers (stock solution 5.5 mM in 100% DMSO) were diluted in cell culture media (Dulbecco's Modified Eagle Medium/Nutrient Mixture F-12) supplemented with 10% v/v Fetal Bovine Serum, 100 U/mL penicillin, 100 µg/mL streptomycin and 10% w/v Kollidon-12. Once cells had reached ˜80% confluence, spent media was replaced with media containing photosensitizer and cells were incubated for the desired period of time to allow photosensitizer uptake.
(§3) SKOV3 cells were seeded in 96-well black wall plates (Greiner #655090) at a cell density of 5000 cells in 100 μl culture medium per well. On reaching ˜60% confluence, so media was aspirated and replaced with fresh media containing the relevant phyllochlorin analogue from 0-100 μM in DMSO. Cells were incubated for a further 24 hours, allowing uptake of phyllochlorin analogues.
To test for phototoxicity, cells incubated with phyllochlorin analogues (0-10 μM in DMSO) had culture media replaced after 24 hours (as above) and were then exposed to a 652 nm laser (Invion) with laser density at 50 mW/cm^2 for 5 mins (total 15 J/cm^2). Following activation, cells were cultured for a further 24 hours. Media was then replaced with fresh media containing AlamarBlue, and % viable cells remaining assessed as above. Controls included cells treated with phyllochlorin analogues but not activated by laser light; cells without phyllochlorin analogue treatment but with laser light; and untreated controls. All measurements were made in quadruplicate.
(§4) For comparative purposes, phyllochlorin analogues were tested and compared against both chlorin e4 disodium and Talaporfin sodium, a clinically approved photosensitizer used in the photodynamic treatment of lung cancers. Phototoxicity IC90 values and dark toxicity IC10 values were calculated using a log[inhibitor]-vs normalized response dose curve with variable slope, using the formula Y=100/(1+(IC90/X)^HillSlope (phototoxicity IC90) or Y=100/(1+(IC10/X)^HillSlope (dark toxicity IC10).

[4] = test system: SKOV3 ovarian cancer cells; experiment: Inherent cytotoxicity (dark toxicity) in SKOV3 cells (AlamarBlue viability); format: cell-based, Human
Description: as §1, §2
as §3, with “confluence,” for “confluence, so”
To test for inherent cytotoxicity (i.e. “dark toxicity”) of the phyllochlorin analogue the culture media was replaced after 24 hours with fresh media containing 10% (v/v) AlamarBlue Cell Viability Reagent (ThermoFisher) and cells incubated at 37° C. for 6 hours. Untreated cells were used as a control. Fluorescence (Ex 555 nm/Em 596 nm) was measured using a Cytation 3 Multimode Plate Reader (Biotek), and cytotoxicity assessed according to the % viable cells remaining. All measurements were made in quadruplicate.
as §4

SKOV3 cells = experiment: Cellular uptake and retention (intrinsic fluorescence); format: cell-based, Human; details: for Uptake and clearance, comparison of the two salt forms: SKOV3, 24 hours uptake then 24 hours clearance
Description: Based on the increased phototoxicity of compound 1c versus compound 1, it was assessed whether this salt substitution alters cellular uptake or retention over time. SKOV3 cells were incubated for up 24 hours in the presence of either compound 1 or 1c (as previously described). At defined time intervals (FIG. 5) the media was aspirated, replaced with sterile PBS, and cells imaged for fluorescence (Ex 405 nm/Em 660 nm) using a Cytation 3 Multimode Plate Reader (Biotek). After 24 hours the media was aspirated, replaced with fresh media and the loss of cellular fluorescence similarly monitored. All images (minimum 100 cells per time point) were then quantitatively analysed (Gen5.0 software) and an average fluorescence/cell/time point determined. Average fluorescence measurements were normalised against the maximum average value measured for each photosensitizer, and plotted as percent total fluorescence (mean±SD) overtime.
The uptake and retention of compounds 1 and 2 was compared in SKOV3 cancer cells over a 48 hour period. SKOV3 cells were incubated for up 24 hours in the presence of either compound 1 or 2 (as previously described). At defined time intervals (FIG. 6) the media was aspirated, replaced with sterile PBS, and cells imaged for fluorescence (Ex 405 nm/Em 660 nm) using a Cytation 3 Multimode Plate Reader (Biotek). After 24 hours the media was aspirated, replaced with fresh media and the loss of cellular fluorescence similarly monitored. All images (minimum 100 cells per time point) were then quantitatively analysed (Gen5.0 software) and an average fluorescence/cell/time point determined. Average fluorescence measurements were normalised against the maximum average value measured for each photosensitizer, and plotted as percent total fluorescence (mean±SD) over time.
Phyllochlorin was functionalised with saccharidyl groups (glucose or mannose) using various configurations, and the effects on rate of uptake by cells assessed over a 4 hour incubation period as above. The rate of uptake of saccharidyl-conjugated phyllochlorin analogues exceeded that of unconjugated compound 2 (examples shown in FIG. 7); after 2 hours, saccharidyl-conjugated phyllochlorin analogues (compounds 6, 8 and 17) had reached 57-68% of their maximal uptake compared to 37% for compound 2 (FIG. 7A). By 4 hours total uptake was similar, and there was no apparent difference in cellular distribution between glucose (compounds 6 and 8) and mannose (compound 17) linked species (FIG. 7B).

[5] = 24 h uptake, 652 nm laser 50 mW/cm2 5 mins (15 J/cm2), viability 24 h later, read-out: Cellular Toxicity: Phototoxicity IC90
[6] = Homo sapiens, SK-OV-3, light or radiation study, 24 h uptake, 652 nm laser 50 mW/cm2 5 mins (15 J/cm2), viability 24 h later, read-out: Cellular Toxicity: Phototoxicity IC90

| Compound | Cellular Toxicity: Dark toxicity IC10 ([4]; human, 24 h) [nM] | Singlet Oxygen Production (slope) 1O2 [2] | IC90 [3, 6] [nM] | other results |
| --- | --- | --- | --- | --- |
| NCC(=O)CCC(=O)O [Compound 5-ALA, 5-Aminolevulinic acid, reference compound] |  |  |  | Tumour localisation at 24 hours post-administration [1]: could not be accurately detected |
| C=Cc1c(C)c2cc3nc(c(C)c4cc(C)c(cc5nc(cc1[nH]2)C(C)=C5CC)[nH]4)[C@@H](CCC(=O)O)[C@@H]3C [Compound 1, phyllochlorin sodium salt] | 21960 |  |  | Singlet Oxygen Production (slope) 1O2 ([2]; sodium salt): 1445.0; IC90 ([3]; read-out: Cellular Toxicity: Phototoxicity IC90, 24 h uptake, 652 nm laser 50 mW/cm2 5 mins (15 J/cm2), viability 24 h later, sodium salt): 350 nM; Uptake and clearance, comparison of the two salt forms (SKOV3 cells): no significant difference; Fluorescence lost from cells (SKOV3 cells; SKOV3, within 4 hours after replacing media): 80% |
| C=Cc1c(C)c2cc3nc(c(C)c4cc(C)c(cc5nc(cc1[nH]2)C(C)=C5CC)[nH]4)[C@@H](CCC(=O)O)[C@@H]3C [Compound 1c, phyllochlorin choline salt] | 58010 | 1229.0 |  | IC90 [3, 5]: 210 nM; Uptake and clearance, comparison of the two salt forms (SKOV3 cells): no significant difference |
| C=Cc1c(C)c2cc3nc(c(C)c4cc(C)c(cc5nc(cc1[nH]2)C(C)=C5CC)[nH]4)[C@@H](CCC(=O)OC)[C@@H]3C [Compound 2, phyllochlorin methyl ester] | 39620 | 2141.0 | 260 | Percent of maximal uptake (SKOV3 cells; SKOV3, after 2 hours incubation): 37%; Compound remaining within cells (SKOV3 cells; SKOV3, after 24 hours clearance): > 50% |
| 3-((7S,8S)-18-ethyl-2,5,8,12,17-pentamethyl-13-vinyl-7H,8H-porphyrin-7-yl)-N-methyl-N-(3-(((2S,3R,4S,5S,6R)-3,4,5-trihydroxy-6-(hydroxymethyl)tetrahydro-2H-pyran-2-yl)thio)propyl)propanamide zinc complex [Compound 19] |  | 404.7 |  | IC90 [3, 5]: 12800 nM; Cellular Toxicity: Dark toxicity IC10 [4]: 20200 nM |
| C=Cc1c(C)c2cc3nc(c(C)c4cc(C)c(cc5nc(cc1[nH]2)C(C)=C5CC)[nH]4)[C@@H](CCC(=O)N(C)CCCO[C@@H]1O[C@H](CO)[C@@H](O)[C@H](O)[C@H]1O)[C@@H]3C [Compound 15, 3-((7S,8S)-18-ethyl-2,5,8,12,17-pentamethyl-13-vinyl-7H,8H-porphyrin-7-yl)-N-methyl-N-(3-(((2R,3R,4S,5S,6R)-3,4,5-trihydroxy-6-(hydroxymethyl)tetrahydro-2H-pyran-2-yl)oxy)propyl)propanamide] | 14600 | 976.4 | 230 |  |
| C=Cc1c(C)c2cc3nc(c(C)c4cc(C)c(cc5nc(cc1[nH]2)C(C)=C5CC)[nH]4)[C@@H](CCC(=O)N(C)CCOCCO[C@@H]1O[C@H](CO)[C@@H](O)[C@H](O)[C@H]1O)[C@@H]3C [Compound 14, 3-((7S,8S)-18-ethyl-2,5,8,12,17-pentamethyl-13-vinyl-7H,8H-porphyrin-7-yl)-N-methyl-N-(2-(2-(((2R,3R,4S,5S,6R)-3,4,5-trihydroxy-6-(hydroxymethyl)tetrahydro-2H-pyran-2-yl)oxy)ethoxy)ethyl)propanamide] | 22790 | 1293.0 | 170 |  |
| 3-((7S,8S)-18-ethyl-2,5,8,12,17-pentamethyl-13-vinyl-7H,8H-porphyrin-7-yl)-N-(2-(2-hydroxyethoxy)ethyl)-N-methylpropanamide zinc complex [Compound 21] |  | 423.4 |  | Fold decrease in the rate of ROS production on Zn2+ complexation ([2]; compound 21 versus compound 18): ~2.5 fold; IC90 [3, 5]: 4770 nM; Cellular Toxicity: Dark toxicity IC10 [4]: 8170 nM |
| C=Cc1c(C)c2cc3nc(c(C)c4cc(C)c(cc5nc(cc1[nH]2)C(C)=C5CC)[nH]4)[C@@H](CCC(=O)N(C)CCCCCO)[C@@H]3C [Compound 7, 3-((7S,8S)-18-ethyl-2,5,8,12,17-pentamethyl-13-vinyl-7H,8H-porphyrin-7-yl)-N-(5-hydroxypentyl)-N-methylpropanamide] | 14270 | 1494.0 | 50 | IC90 ([3]; Homo sapiens, SK-OV-3, light or radiation study, read-out: Phototoxicity apparent IC90): < 100 nM |
| C=Cc1c(C)c2cc3nc(c(C)c4cc(C)c(cc5nc(cc1[nH]2)C(C)=C5CC)[nH]4)[C@@H](CCC(=O)O)[C@@H]3C [Compound 1d, phyllochlorin arginine salt] | 18150 | 833.9 |  | IC90 ([3]; read-out: Cellular Toxicity: Phototoxicity IC90, 24 h uptake, 652 nm laser 50 mW/cm2 5 mins (15 J/cm2), viability 24 h later): 1420 nM |
| C=Cc1c(C)c2cc3nc(c(C)c4cc(C)c(cc5nc(cc1[nH]2)C(C)=C5CC)[nH]4)[C@@H](CCC(=O)NCCOCCO[C@@H]1O[C@H](CO)[C@@H](O)[C@H](O)[C@H]1O)[C@@H]3C [Compound 20, 3-((7S,8S)-18-ethyl-2,5,8,12,17-pentamethyl-13-vinyl-7H,8H-porphyrin-7-yl)-N-(2-(2-(((2R,3R,4S,5S,6R)-3,4,5-trihydroxy-6-(hydroxymethyl)tetrahydro-2H-pyran-2-yl)oxy)ethoxy)ethyl)propanamide] | 46230 | 1210.0 | 230 |  |
